Measured values reported in patent publication US11304419B2, “Methods to induce heat stress tolerance in plants” (Valent BioSciences LLC, priority 2020, dated 2022).

Tests used:
Assay type in all cases: in vivo
Apogee wheat = assay: Heat stress tolerance in wheat following ACC application at Feekes stage 5 (Example 3); conditions: heat stress 34/28° C. 4 days; for % Reproductive Tillers / Fresh Weight / Total Dry Weight / Total Spike Number / Total Tiller Number / Δ Canopy Density: n = 8; for % Reproductive Tillers, percent increase over stress control / Fresh Weight, percent increase over stress control / Total Dry Weight, percent increase over stress control / Total Spike Number, percent increase over stress control / Total Tiller Number, percent increase over stress control / Δ Canopy Density, percent increase over stress control: vs stress control (no heat); for % Reproductive Tillers, percent increase over treatment control / Fresh Weight, percent increase over treatment control / Total Dry Weight, percent increase over treatment control / Total Spike Number, percent increase over treatment control / Total Tiller Number, percent increase over treatment control / Δ Canopy Density, percent increase over treatment control: vs treatment control (heat, no ACC)
Method: Apogee wheat was seeded into ProMix BX (Premier Horticulture) and grown in a growth cabinet under the following conditions: 24/18° C. day/night temperature under a 16/8 hour light/dark photoperiod. Plants were at Feekes stage 5 following the first set of growth conditions. Next, spray applications of 0, 0, 100 or 300 ppm ACC (n=8) were made using a track sprayer on Oct. 4, 2019. […] These conditions constitute significant heat stress. The other set of control plants (“stress control”) remained in the first growth cabinet. Finally, the plants were then returned to the first growth cabinet for about 14 days where plants reached Feekes stage 10.1 (head emergence). Plants were then destructively harvested and measured for total spike number, fresh weight, total reproductive tiller number, percent reproductive tillers, A canopy density and total dry weight. Percent reproductive tillers is calculated by dividing the number of reproductive tillers by the total number of spikes at harvest. A canopy density is calculated by subtracting the canopy density at treatment from the canopy density at harvest.

[1] = test system: dwarf variety of Brassica napus; assay: Heat stress tolerance in Brassica napus following ACC application; conditions: heat stress 36/30° C. seven days; for Seed Number per Pod / Seed Yield per Pod / Single Seed Weight: n = 10; for Seed Number per Pod, percent increase over treatment control / Seed Yield per Pod, percent increase over treatment control / Single Seed Weight, percent increase over treatment control: vs treatment control
Method: A dwarf variety of Brassica napus commonly used as an experimental model for the canola variety of B. napus was seeded into ProMix BX (Premier Horticulture) and grown in a greenhouse. […] Following spraying, plants were moved to a growth cabinet under the following conditions: 24/18 C day night temperatures under a 16/8 light dark period. Next, 2 days following treatment, half of the plants were transferred to a second growth cabinet at 36/30° C. day/night temperature under a 16/8-hour light/dark photoperiod for seven days. These conditions constitute early season heat stress. At all times flowers and pods were pruned to keep the number of pods to about 10. Plants were then destructively harvested and measured for seed yield, seed numbers, seed yield per pod, seed number per pod and single seed weight.

Williams 82 soybean = assay: Heat stress tolerance in soybean following ACC application; conditions: heat stress 34/30° C. six days; for Canopy Density / Fresh Weight / Height / Total Dry Weight / Δ Canopy Density: n = 5; for Canopy Density, percent increase over stress control / Fresh Weight, percent increase over stress control / Height, percent increase over stress control / Total Dry Weight, percent increase over stress control / Δ Canopy Density, percent increase over stress control: vs stress control; for Canopy Density, percent increase over treatment control / Fresh Weight, percent increase over treatment control / Height, percent increase over treatment control / Total Dry Weight, percent increase over treatment control / Δ Canopy Density, percent increase over treatment control: vs treatment control
Method: Williams 82 soybean was seeded into ProMix BX (Premier Horticulture) and grown in a greenhouse. […] Next, spray applications of […] (n=5) were made using a track sprayer on Oct. 9, 2020. Following spraying, plants were moved to a growth cabinet under the following conditions: 24/18 C day night temperatures under a 16/8 light dark period. Next, 3 days following treatment, half of the plants were transferred to a second growth cabinet at 34/30° C. day/night temperature under a 16/8-hour light/dark photoperiod for six days. These conditions constitute early season heat stress. Plants were then destructively harvested and measured for fresh weight, canopy density, Δ canopy density, total dry weight and height.

[2] = 100 ppm ACC spray at Feekes stage 5
[3] = 300 ppm ACC spray at Feekes stage 5

## NC1(C(=O)O)CC1 [ACC, 1-amino-1-cyclopropanecarboxylic acid]
Apogee wheat; [2]
  % Reproductive Tillers: 63.80%
  Fresh Weight: 17.95 grams
  Total Dry Weight: 4.31 grams
  Total Spike Number: 7
  Total Tiller Number: 4.38
  Δ Canopy Density: 2.65%
Apogee wheat; 100 ppm ACC
  % Reproductive Tillers, percent increase over stress control: (−11.5%)
  Fresh Weight, percent increase over stress control: (4.6%)
  Total Dry Weight, percent increase over stress control: (−5.5%)
  Total Spike Number, percent increase over stress control: (24.3%)
  Total Tiller Number, percent increase over stress control: (9.5%)
  Δ Canopy Density, percent increase over stress control: (3.5%)
  % Reproductive Tillers, percent increase over treatment control: [−0.8%]
  Fresh Weight, percent increase over treatment control: [5.8%]
  Total Dry Weight, percent increase over treatment control: [11.1%]
  Total Spike Number, percent increase over treatment control: [12.0%]
  Total Tiller Number, percent increase over treatment control: [12.9%]
  Δ Canopy Density, percent increase over treatment control: [5.2%]
Apogee wheat; [3]
  % Reproductive Tillers: 63.10%
  Fresh Weight: 16.74 grams
  Total Dry Weight: 4.33 grams
  Total Spike Number: 6.38
  Total Tiller Number: 3.88
  Δ Canopy Density: 2.36%
Apogee wheat; 300 ppm ACC
  % Reproductive Tillers, percent increase over stress control: (−12.5%)
  Fresh Weight, percent increase over stress control: (−2.4%)
  Total Dry Weight, percent increase over stress control: (−5.0%)
  Total Spike Number, percent increase over stress control: (13.3%)
  Total Tiller Number, percent increase over stress control: (−3.0%)
  Δ Canopy Density, percent increase over stress control: (−7.8%)
  % Reproductive Tillers, percent increase over treatment control: [−1.9%]
  Fresh Weight, percent increase over treatment control: [−1.4%]
  Total Dry Weight, percent increase over treatment control: [11.6%]
  Total Spike Number, percent increase over treatment control: [2.1%]
  Total Tiller Number, percent increase over treatment control: [0%]
  Δ Canopy Density, percent increase over treatment control: [−6.3%]
[1]; 10 ppm ACC spray at flowering
  Seed Number per Pod: 14.8
  Seed Yield per Pod: 0.029 grams
  Single Seed Weight: 0.0019 grams
[1]; 10 ppm ACC
  Seed Number per Pod, percent increase over treatment control: [6.5%]
  Seed Yield per Pod, percent increase over treatment control: [0%]
  Single Seed Weight, percent increase over treatment control: [−9.5%]
[1]; 30 ppm ACC spray at flowering
  Seed Number per Pod: 15.1
  Seed Yield per Pod: 0.033 grams
  Single Seed Weight: 0.0021 grams
[1]; 30 ppm ACC
  Seed Number per Pod, percent increase over treatment control: [8.6%]
  Seed Yield per Pod, percent increase over treatment control: [13.8%]
  Single Seed Weight, percent increase over treatment control: [0%]
[1]; 100 ppm ACC spray at flowering
  Seed Number per Pod: 17.4
  Seed Yield per Pod: 0.036 grams
  Single Seed Weight: 0.0020 grams
[1]; 100 ppm ACC
  Seed Number per Pod, percent increase over treatment control: [25.2%]
  Seed Yield per Pod, percent increase over treatment control: [24.1%]
  Single Seed Weight, percent increase over treatment control: [−4.8%]
[1]; 300 ppm ACC spray at flowering
  Seed Number per Pod: 15.6
  Seed Yield per Pod: 0.030 grams
  Single Seed Weight: 0.0019 grams
[1]; 300 ppm ACC
  Seed Number per Pod, percent increase over treatment control: [12.2%]
  Seed Yield per Pod, percent increase over treatment control: [3.4%]
  Single Seed Weight, percent increase over treatment control: [−9.5%]
Williams 82 soybean; 10 ppm ACC spray at V1
  Canopy Density: 13.24
  Fresh Weight: 19.85 grams
  Height: 41.07 cm
  Total Dry Weight: 3.15 grams
  Δ Canopy Density: 7.77
Williams 82 soybean; 10 ppm ACC
  Canopy Density, percent increase over stress control: (83.9%)
  Fresh Weight, percent increase over stress control: (32.8%)
  Height, percent increase over stress control: (30.1%)
  Total Dry Weight, percent increase over stress control: (18.9%)
  Δ Canopy Density, percent increase over stress control: (256.4%)
  Canopy Density, percent increase over treatment control: [13.6%]
  Fresh Weight, percent increase over treatment control: [6.5%]
  Height, percent increase over treatment control: [7.9%]
  Total Dry Weight, percent increase over treatment control: [6.8%]
  Δ Canopy Density, percent increase over treatment control: [22.4%]
Williams 82 soybean; 30 ppm ACC spray at V1
  Canopy Density: 12.68
  Fresh Weight: 20.33 grams
  Height: 38.25 cm
  Total Dry Weight: 3.25 grams
  Δ Canopy Density: 7.19
Williams 82 soybean; 30 ppm ACC
  Canopy Density, percent increase over stress control: (76.1%)
  Fresh Weight, percent increase over stress control: (36.0%)
  Height, percent increase over stress control: (21.1%)
  Total Dry Weight, percent increase over stress control: (22.6%)
  Δ Canopy Density, percent increase over stress control: (229.8%)
  Canopy Density, percent increase over treatment control: [8.7%]
  Fresh Weight, percent increase over treatment control: [9.1%]
  Height, percent increase over treatment control: [0.5%]
  Total Dry Weight, percent increase over treatment control: [10.2%]
  Δ Canopy Density, percent increase over treatment control: [13.2%]
Williams 82 soybean; 100 ppm ACC spray at V1
  Canopy Density: 10.90
  Fresh Weight: 19.25 grams
  Height: 37.95 cm
  Total Dry Weight: 3.08 grams
  Δ Canopy Density: 5.36
Williams 82 soybean; 100 ppm ACC
  Canopy Density, percent increase over stress control: (51.4%)
  Fresh Weight, percent increase over stress control: (28.8%)
  Height, percent increase over stress control: (20.2%)
  Total Dry Weight, percent increase over stress control: (16.2%)
  Δ Canopy Density, percent increase over stress control: (145.9%)
  Canopy Density, percent increase over treatment control: [−6.5%]
  Fresh Weight, percent increase over treatment control: [3.3%]
  Height, percent increase over treatment control: [−0.3%]
  Total Dry Weight, percent increase over treatment control: [4.4%]
  Δ Canopy Density, percent increase over treatment control: [−15.6%]
